The target of assay [1] is T1, Aspartate α-decarboxylase (ADC) (Helicobacter pylori, UniProt P56065).
T1 construct: gene panD; recombinant 6xHis-tagged ADC, 117 amino acids for ADC plus six for the His-tag (from H. pylori ATCC 43504)
Briefly: HPLC measurement of β-alanine produced from L-aspartate by purified 6xHis-tagged ADC. The class given is biochemical.

The subject of assay [2] is T2, Helicobacter pylori ATCC 43504.
T2 construct: ATCC 43504
Briefly: microbe, parasite or virus in culture. Set-up: MIC against H. pylori by agar dilution and broth microdilution, microaerophilic, visible growth. To be noted: ATCC43504, 72 h. Here is the method:
(§1) The MIC of malonic acid was determined by agar dilution and broth microdilution methods, against H. pylori ATCC 43504 and H. pylori HPM001 strains. Malonic acid (Loba, India) was dissolved in distilled water to the desired concentration, sterilized by a […] syringe filter, and used within 72 h of preparation. Inocula for MIC testing were prepared by suspending colonies in saline to reach an optical density equivalent to 2.0 McFarland turbidity standard (approximately 1×10^7 to 1×10^8 CFU/mL) ([CLSI, 2015]). The culture media used in MIC determination were freshly prepared, according to the manufacturer’s instruction, and supplemented with 1% yeast extract (LabM, United Kingdom) to enhance bacterial growth ([Walsh and Moran, 1997]). MIC determination by broth microdilution method was carried out in 96-well round-bottom micro-titre plates. […] The MIC of malonic acid was determined by agar dilution and broth microdilution methods against H. pylori ATCC 43504 and H. pylori HPM001. […] No significant difference was recorded between the MIC of malonic acid against H. pylori ATCC 43504 and H. pylori HPM001 using either the agar (p = 0.8529) or the broth microdilution methods (p = 0.8784). There was also no significant difference between the mean MIC of malonic acid recorded against the tested strains by both methods (p = 0.54).

Assay [3] relates to T3, Helicobacter pylori HPM001.
T3 construct: HPM001
The experiment in a line: microbe, parasite or virus in culture. Set-up: MIC against H. pylori by agar dilution and broth microdilution, microaerophilic, visible growth. Particulars: HPM001, 72 h. Here is the method: as §1

Assay [4] concerns T4, Burkholderia cepacia ATCC BAA-245.
T4 construct: ATCC BAA-245
Briefly: microbe, parasite or virus in culture. Set-up: species or system bacterial species; broth microdilution MIC in Mueller-Hinton broth, visible growth. Particulars: Burkholderia cepacia, ATCCBAA245, 20 h. Here is the method:
(§2) Assessment of the spectrum of activity of malonic acid The spectrum of activity of malonic acid was assessed by determining malonic acid MIC against eight other pathogenic bacterial species (A. baumannii ATCC 19606, B. cenocepacia ATCC BAA-245, E. coli ATCC 25922, E. faecium ATCC 27270, E. faecalis ATCC 19433, K. pneumoniae ATCC 10031, P. aeruginosa ATCC 27856, and S. aureus ATCC 25923) using broth microdilution method, according to the CLSI guidelines ([CLSI, 2018]). Malonic acid solution was serially diluted in Muller-Hinton broth (100 μL) to get concentrations ranging from 6 to 0.19 mg/mL. The inoculum was prepared to be equivalent to 0.5 McFarland standard (containing approximately 1–2 × 10^8 CFU/mL with most species) and was further diluted 1:10 (to get a concentration of 10^7 CFU/mL). 10 μL of the diluted inoculum was transferred to each well to contain 5 × 10^5 CFU/mL. Plates were incubated at 37°C for 20 h. […] The experiment was carried out in triplicates. Malonic acid MIC was determined against other pathogenic species (A. baumannii ATCC 19606, B. cenocepacia ATCC BAA-245, E. coli ATCC 25922, E. faecium ATCC 27270, E. faecalis ATCC 19433, K. pneumoniae ATCC 10031, P. aeruginosa ATCC 27856, and S. aureus ATCC 25923) by the broth microdilution method.

Assay [5] deals with T5, Staphylococcus aureus ATCC 25923.
T5 construct: ATCC 25923
The experiment in a line: microbe, parasite or virus in culture. Set-up: species or system bacterial species; broth microdilution MIC in Mueller-Hinton broth, visible growth. Particulars: Staphylococcus aureus, ATCC25923, 20 h. As to the method:
as §2

Assay [6] concerns T6, Acinetobacter baumannii ATCC 19606.
T6 construct: ATCC 19606
Briefly: microbe, parasite or virus in culture. Set-up: species or system bacterial species; broth microdilution MIC in Mueller-Hinton broth, visible growth. Particulars: Acinetobacter baumannii, ATCC19606, 20 h. Here is the method: as §2

Assay [7] concerns T7, Enterococcus faecium ATCC 27270.
T7 construct: ATCC 27270
Briefly: microbe, parasite or virus in culture. Set-up: species or system bacterial species; broth microdilution MIC in Mueller-Hinton broth, visible growth. To be noted: Enterococcus faecium, ATCC27270, 20 h. Here is the method: as §2

Assay [8] has as its system T8, Enterococcus faecalis ATCC 19433.
T8 construct: ATCC 19433
Briefly: microbe, parasite or virus in culture. Set-up: species or system bacterial species; broth microdilution MIC in Mueller-Hinton broth, visible growth. To be noted: Enterococcus faecalis, ATCC19433, 20 h. As to the method:
as §2

The test system of assay [9] is T9, Klebsiella pneumoniae ATCC 10031.
T9 construct: ATCC 10031
The experiment in a line: microbe, parasite or virus in culture. Set-up: species or system bacterial species; broth microdilution MIC in Mueller-Hinton broth, visible growth. To be noted: Klebsiella pneumoniae, ATCC10031, 20 h. Here is the method: as §2

The subject of assay [10] is T10, Escherichia coli ATCC 25922.
T10 construct: ATCC 25922
Briefly: microbe, parasite or virus in culture. Set-up: species or system bacterial species; broth microdilution MIC in Mueller-Hinton broth, visible growth. To be noted: Escherichia coli, ATCC25922, 20 h. Here is the method: as §2

Assay [11] has as its system T11, Pseudomonas aeruginosa ATCC 27856.
T11 construct: ATCC 27856
The experiment in a line: microbe, parasite or virus in culture. Particulars: Pseudomonas aeruginosa, ATCC27856, 20 h. Set-up: species or system bacterial species; broth microdilution MIC in Mueller-Hinton broth, visible growth. As to the method: as §2

This is an account of results in paper PMC9746714, “Aspartate α-decarboxylase a new therapeutic target in the fight against Helicobacter pylori infection” (Frontiers in Microbiology, 2022).

In brackets after ≈: the same amount, converted by molar mass.

T1 sequence (P56065 1-24): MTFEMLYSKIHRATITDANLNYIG
T1 sequence (P56065 25-117): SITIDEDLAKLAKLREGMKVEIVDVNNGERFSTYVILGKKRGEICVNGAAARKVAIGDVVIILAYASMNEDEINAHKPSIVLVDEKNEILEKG

As to `NC(CC(=O)O)C(=O)O` [L-aspartate, 2-amino-butanedioic acid], in [1], the “HPLC measurement of β-alanine produced from L-aspartate by purified 6xHis-tagged” value is on record as “assaying β-alanine, the product of the enzymatic action of recombinant H. pylori 6x-His-tagged ADC on aspartate”.

For the molecule `O=C(O)CC(=O)O` [MA, propanedioic acid], the MIC in assay [2] worked out at 625 ± 180 µg/mL (≈ 6.01 mM); in [3] it was 750 µg/mL (≈ 7.21 mM); in assay [4] it was 1000 ± 350 µg/mL (≈ 9.61 mM); in assay [5], 750 µg/mL (≈ 7.21 mM); in assay [6] it was 750 µg/mL (≈ 7.21 mM); in [7], 1000 ± 350 µg/mL (≈ 9.61 mM). For the same molecule, the MIC in assay [8] is 625 ± 180 µg/mL (≈ 6.01 mM); in assay [9], 1250 ± 350 µg/mL (≈ 12 mM); in [10], 750 µg/mL (≈ 7.21 mM); in assay [11] it was 625 ± 180 µg/mL (≈ 6.01 mM).
